{
  "source": "paper PMC9865645",
  "about": "“The Impact of N^ε-Acryloyllysine Piperazides on the Conformational Dynamics of Transglutaminase 2” (International Journal of Molecular Sciences, 2023)",
  "target": "T1, hTGase 2 (Homo sapiens, UniProt P21980)",
  "T1 construct": "purchased Zedira (Darmstadt, Germany) T022, lot 0716a",
  "T1 sequence (P21980 1-687)": "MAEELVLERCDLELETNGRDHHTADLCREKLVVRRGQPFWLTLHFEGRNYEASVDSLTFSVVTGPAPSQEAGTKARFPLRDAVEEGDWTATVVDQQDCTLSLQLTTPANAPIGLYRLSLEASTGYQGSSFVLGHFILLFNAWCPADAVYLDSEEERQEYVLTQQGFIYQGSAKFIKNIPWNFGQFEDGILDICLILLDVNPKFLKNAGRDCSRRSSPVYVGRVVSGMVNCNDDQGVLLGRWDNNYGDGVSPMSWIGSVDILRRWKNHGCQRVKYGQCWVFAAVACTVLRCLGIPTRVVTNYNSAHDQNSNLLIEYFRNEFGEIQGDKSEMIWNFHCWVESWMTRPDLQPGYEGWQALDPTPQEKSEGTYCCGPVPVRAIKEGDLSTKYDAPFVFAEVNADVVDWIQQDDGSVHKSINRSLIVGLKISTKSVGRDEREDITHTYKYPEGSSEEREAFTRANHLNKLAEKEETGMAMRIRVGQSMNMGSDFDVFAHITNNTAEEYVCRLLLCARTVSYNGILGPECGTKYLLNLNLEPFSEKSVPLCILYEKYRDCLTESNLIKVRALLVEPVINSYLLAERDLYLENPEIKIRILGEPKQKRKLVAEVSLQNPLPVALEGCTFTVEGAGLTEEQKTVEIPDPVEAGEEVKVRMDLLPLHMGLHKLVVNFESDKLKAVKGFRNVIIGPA",
  "assay": "switchSENSE dynamic mode: upward motion (relative inverse slope, friction) of hTGase 2-dsDNA lever",
  "conditions": "GTPγS 20 nM or Ca^2+ 1 mM; non-directed and His-tag-directed labeling",
  "experimental": "Prior to the measurement of the switching kinetics of the differently conjugated hTGase 2, a complementary ssDNA without the enzyme (500 nM) was hybridized to the single-stranded capture strands on the chip electrodes to obtain the reference kinetics of the dsDNA lever. In addition, to determine the impact of CaCl2 and DMSO on the movement of the bare dsDNA lever, and thus on reference kinetics, its switching behavior was investigated in TE40, TE40 + 1 mM CaCl2, TE40 + 1 mM CaCl2 + 1% DMSO or TE40 + 1 mM CaCl2 + 0.1% DMSO.\nThen, the dehybridization of the reference lever occurred during a regeneration step followed by the hybridization with an ssDNA-hTGase 2 conjugate (500 nM). Thereafter, the switching kinetics was recorded. […]\nThe impact on the hydrodynamic drag of the hTGase 2-functionalized lever was investigated under identical conditions for the three irreversible inhibitors 1–3: At first, the switching kinetics of the dsDNA lever and the hTGase 2-dsDNA conjugates were recorded. Secondly, the switching kinetics of the hTGase 2-dsDNA conjugates during and after Ca^2+ exposure were recorded using TE40 + 1 mM CaCl2 or TE40, respectively. […] In this process, the hydrodynamic drag was analyzed during the exposure to 10 µM inhibitor (for 6 min) dissolved in TE40 + 1 mM CaCl2 + 0.1% DMSO and to TE40 afterward. […]",
  "data": [
    {"smiles": "Nc1nc2c(ncn2[C@@H]2O[C@H](COP(=O)(O)OP(=O)(O)OP(O)(O)=S)[C@@H](O)[C@H]2O)c(=O)[nH]1", "note": "[GTPγS]", "values": [
      {"measurement": "relative inverse slope of hTGase 2-dsDNA lever versus pure buffer without effector", "value": "significantly smaller"}
    ]}
  ]
}
